Experimental findings from patent US11767310B2, “Nicotinamide RIPK1 inhibitors” (AbbVie Inc., priority 2021, dated 2023) are described below.

Marks after values point to notes of the source that are not given here.

Data set [1] is described as follows: Prodrug bioconversion in intestinal S9 cell fractions. The data set is classed as in vitro ADME. The method, then:
(§1) Phosphatase enzymes are […] expressed with unique tissue specific isoforms and are key catalysts in the conversion of phosphate-containing prodrugs. To determine if exemplary phosphate prodrug compounds of the invention are enzymatically converted to the parent molecule across relevant species, the prodrug compounds were incubated with intestinal S9 cell fractions obtained from mouse, rat, dog, monkey, and human.
[…] Incubations were conducted in the absence and presence of 1 mM sodium orthovanadate, a phosphatase inhibitor. Prodrug depletion and parent formation were monitored by LC-MS/MS and normalized to internal standard as the analyte peak area ratio.

Assay in data set [2]: as above
The class given is in vitro ADME. To be noted: 0.25 mg/mL. The method, then: as §1
Phosphate prodrugs were incubated (1 μM) for up to 2 hours in Tris-Cl buffer (pH 7.4) containing 3 mM magnesium chloride, intestinal S9 protein ([…] (ms, rat, hu, Table F) from mouse, rat, dog, monkey or human. Incubations were conducted in the absence and presence of 1 mM sodium orthovanadate, a phosphatase inhibitor. Prodrug depletion and parent formation were monitored by LC-MS/MS and normalized to internal standard as the analyte peak area ratio.

Data set [3] deals with U937 cells. As to the kind of experiment: U937 TNF/zVAD Cytotoxicity Cell Assay. The class given is cell-based. To be noted: Homo sapiens, U-937; TNFα 10 ng/mL + Z-VAD FMK 20 μM, 16-20 hours; read-out: U937 TNF/zVAD Induced Cytotoxicity IC50. The method, then: Compounds were tested for their ability to prevent TNF induced necroptosis in U937 cells. Treatment with TNF and the caspase inhibitor zVAD-FMK results in the activation and phosphorylation of RIPK1 and subsequent phosphorylation of RIPK3 and MLKL (Mixed Lineage Kinase Domain Like Pseudokinase), leading to induction of necroptotic cell death that is measured as a reduction in cell viability. Similar U937 assay protocols have been previously described; see, e.g., Harris et al., ACS Med. Chem. Letters (2013) 4:1238-1243 and Supplementary Information.
Test compounds were solvated in dimethyl sulfoxide (DMSO) and 3-fold serially diluted from 10 uM to 0.0005 uM with technical duplicates into an empty 384 well plate. U937 cells were resuspended at a concentration of 500,000 cells/mL in fresh RPMI (Roswell Park Memorial Institute) 1640 growth medium containing 10% heat inactivated fetal bovine serum (FB1S) and seeded into a 384 well plate containing compounds and incubated for 1 hour at 37° C. Following incubation, the cells were challenged with TNFα (final concentration of 10 ng/mL) and Z-VAD FMK (N-Benzyloxycarbonyl-Val-Ala-Asp(O-Me) fluoromethyl ketone; final concentration of 20 μM) for 16-20 hours at 37° C. Following the incubation with TNFα/Z-VAD, cells were lysed with Cell Titer-Glo and incubated for 5-10 minutes. The plate was then read on an Envision plate reader. Data was normalized and analyzed with Studies from Dotmatics.

[4] abbreviates: Human, 0.01 mg/mL S9 protein, Table F.
Where [5] appears, read: Human, 0.25 mg/mL S9 protein, Table F.
Where [6] appears, read: Human, 0.25 mg/mL, Experiment 1.
Where [7] appears, read: Human, 0.25 mg/mL, Experiment 2.
Setting [8] is: Human, 0.25 mg/mL, Experiment 3.
Where [9] appears, read: Human, 0.25 mg/mL, Mean of 3 experiments.
[10] abbreviates: Mouse, 0.01 mg/mL S9 protein, Table F.
Where [11] appears, read: Mouse, 0.25 mg/mL S9 protein, Table F.
Where [12] appears, read: Mouse, 0.25 mg/mL, Experiment 1.
Setting [13] is: Mouse, 0.25 mg/mL, Experiment 2.
Where [14] appears, read: Mouse, 0.25 mg/mL, Experiment 3.
Where [15] appears, read: Mouse, 0.25 mg/mL, Mean of 3 experiments.
Where [16] appears, read: Rat, 0.01 mg/mL S9 protein, Table F.
[17] abbreviates: Rat, 0.25 mg/mL S9 protein, Table F.
The mark [18] stands for this setting: Rat, 0.25 mg/mL, Mean of 3 experiments.

As to `CN(C[C@H](Cc1ccccc1)OP(=O)(O)O)C(=O)c1cncc(C#Cc2cnn(C)n2)c1` [Example 23, (S)-1-(N-methyl-5-((2-methyl-2H-1,2,3-triazol-4-yl)ethynyl)nicotinamido)-3-phenylpropan-2-yl dihydrogen phosphate], the “Clint (prodrug disappearance)” value was 1180.2 μL/min/mg intestinal S9 protein in data set [1] (setting [4]); 243.4 μL/min/mg intestinal S9 protein in data set [1] (setting [5]); 199 μL/min/mg intestinal S9 protein in data set [1] (setting [6]); 241 μL/min/mg intestinal S9 protein in data set [1] (setting [7]); 203 μL/min/mg intestinal S9 protein in data set [1] (setting [8]); 214 μL/min/mg intestinal S9 protein in data set [1] (setting [9]). For the same molecule, the “Clint (prodrug disappearance)” value is given as <137** μL/min/mg intestinal S9 protein in data set [1] (setting [10]); 23.3 μL/min/mg intestinal S9 protein in data set [1] (setting [11]); 26.2 μL/min/mg intestinal S9 protein in data set [1] (setting [12]); 34.3 μL/min/mg intestinal S9 protein in data set [1] (setting [13]); 31.3 μL/min/mg intestinal S9 protein in data set [1] (setting [14]); 30.6 μL/min/mg intestinal S9 protein in data set [1] (setting [15]). The “Clint (prodrug disappearance)” value in data set [1] (setting [16]) is reported as <137** μL/min/mg intestinal S9 protein; in data set [1] (setting [17]), 36.7 μL/min/mg intestinal S9 protein; in data set [1] (Rat, 0.25 mg/mL, Experiment 1) it was 29.1 μL/min/mg intestinal S9 protein; in data set [1] (Rat, 0.25 mg/mL, Experiment 2), 33.8 μL/min/mg intestinal S9 protein; in data set [1] (Rat, 0.25 mg/mL, Experiment 3) it was 28.2 μL/min/mg intestinal S9 protein; in data set [1] (setting [18]), 30.4 μL/min/mg intestinal S9 protein. Moreover, the “Clint (prodrug disappearance)” value in data set [2] (Dog, Experiment 1) was 354 μL/min/mg intestinal S9 protein; in data set [2] (Dog, Experiment 2) it was 369 μL/min/mg intestinal S9 protein; in data set [2] (Dog, Experiment 3), 345 μL/min/mg intestinal S9 protein; in data set [2] (Dog, Mean of 3 experiments), 356 μL/min/mg intestinal S9 protein; in data set [2] (Monkey, Experiment 1), 55.4 μL/min/mg intestinal S9 protein; in data set [2] (Monkey, Experiment 2) it was 47.7 μL/min/mg intestinal S9 protein. For the same molecule, the “Clint (prodrug disappearance)” value in data set [2] (Monkey, Experiment 3) is recorded as 48.1 μL/min/mg intestinal S9 protein; in data set [2] (Monkey, Mean of 3 experiments), 50.4 μL/min/mg intestinal S9 protein.

Turning to `Cc1ncc(C(=O)NC[C@@H](O)Cc2ccccc2)cc1C#Cc1cncs1` [Example 16, (S)-N-(2-hydroxy-3-phenylpropyl)-6-methyl-5-(thiazol-5-ylethynyl)nicotinamide], the IC50 in data set [3] worked out at 2580 nM.

As to `Cc1ncc(C(=O)N(C)C[C@@H](O)Cc2ccccc2)cc1C#Cc1cnn(C)c1` [Example 14, (S)-N-(2-hydroxy-3-phenylpropyl)-N,6-dimethyl-5-((1-methyl-1H-pyrazol-4-yl)ethynyl)nicotinamide], in data set [3], the IC50 stood at 18 nM.

With `CN(C[C@H](Cc1ccccc1)OC(=O)CN)C(=O)c1cncc(C#Cc2cnn(C(F)F)c2)c1` [Example 21, (S)-1-(5-((1-(difluoromethyl)-1H-pyrazol-4-yl)ethynyl)-N-methylnicotinamido)-3-phenylpropan-2-yl 2-aminoacetate, hydrochloric acid], the “Clint (prodrug disappearance)” value in data set [1] (setting [4]) was 815.9 μL/min/mg intestinal S9 protein; in data set [1] (setting [5]), 592.9 μL/min/mg intestinal S9 protein; in data set [1] (setting [6]), 391 μL/min/mg intestinal S9 protein; in data set [1] (setting [7]), 400 μL/min/mg intestinal S9 protein; in data set [1] (setting [8]), 355 μL/min/mg intestinal S9 protein; in data set [1] (setting [9]) it was 382 μL/min/mg intestinal S9 protein. Further, the “Clint (prodrug disappearance)” value was 11160 μL/min/mg intestinal S9 protein in data set [1] (setting [10]); >4166.5* μL/min/mg intestinal S9 protein in data set [1] (setting [11]); >480* μL/min/mg intestinal S9 protein in data set [1] (setting [12]); >480* μL/min/mg intestinal S9 protein in data set [1] (setting [13]); >480* μL/min/mg intestinal S9 protein in data set [1] (setting [14]); >480* μL/min/mg intestinal S9 protein in data set [1] (setting [15]). For the same molecule, the “Clint (prodrug disappearance)” value was 2599.5 μL/min/mg intestinal S9 protein in data set [1] (setting [16]); 901.6 μL/min/mg intestinal S9 protein in data set [1] (setting [17]); 396 μL/min/mg intestinal S9 protein in data set [1] (Rat, 0.25 mg/mL, Experiment 1); 719 μL/min/mg intestinal S9 protein in data set [1] (Rat, 0.25 mg/mL, Experiment 2); 750 μL/min/mg intestinal S9 protein in data set [1] (Rat, 0.25 mg/mL, Experiment 3); 622 μL/min/mg intestinal S9 protein in data set [1] (setting [18]). Further, the “Clint (prodrug disappearance)” value is reported as 5.62 μL/min/mg intestinal S9 protein in data set [2] (Dog, Experiment 1); 16.1 μL/min/mg intestinal S9 protein in data set [2] (Dog, Experiment 2); 14.3 μL/min/mg intestinal S9 protein in data set [2] (Dog, Experiment 3); 12.0 μL/min/mg intestinal S9 protein in data set [2] (Dog, Mean of 3 experiments); 89.6 μL/min/mg intestinal S9 protein in data set [2] (Monkey, Experiment 1); 91.3 μL/min/mg intestinal S9 protein in data set [2] (Monkey, Experiment 2). Besides, the “Clint (prodrug disappearance)” value in data set [2] (Monkey, Experiment 3) was 90.7 μL/min/mg intestinal S9 protein; in data set [2] (Monkey, Mean of 3 experiments), 90.5 μL/min/mg intestinal S9 protein.

As for `CN(C[C@H](Cc1ccccc1)OC(=O)CN)C(=O)c1cncc(C#Cc2cnn(C)n2)c1` [Example 25, (S)-1-(N-methyl-5-((2-methyl-2H-1,2,3-triazol-4-yl)ethynyl)nicotinamido)-3-phenylpropan-2-yl 2-aminoacetate, hydrochloric acid], the “Clint (prodrug disappearance)” value in data set [1] (setting [4]) is recorded as 378.1 μL/min/mg intestinal S9 protein; in data set [1] (setting [5]), 410 μL/min/mg intestinal S9 protein; in data set [1] (setting [6]), 272 μL/min/mg intestinal S9 protein; in data set [1] (setting [7]), 294 μL/min/mg intestinal S9 protein; in data set [1] (setting [8]), 293 μL/min/mg intestinal S9 protein; in data set [1] (setting [9]), 286 μL/min/mg intestinal S9 protein. Further, the “Clint (prodrug disappearance)” value is listed as 6821.9 μL/min/mg intestinal S9 protein in data set [1] (setting [10]); >1640.7* μL/min/mg intestinal S9 protein in data set [1] (setting [11]); >480* μL/min/mg intestinal S9 protein in data set [1] (setting [12]); >480* μL/min/mg intestinal S9 protein in data set [1] (setting [13]); >480* μL/min/mg intestinal S9 protein in data set [1] (setting [14]); >480* μL/min/mg intestinal S9 protein in data set [1] (setting [15]). In addition, the “Clint (prodrug disappearance)” value in data set [1] (setting [16]) was 1087.6 μL/min/mg intestinal S9 protein; in data set [1] (setting [17]) it was 393.8 μL/min/mg intestinal S9 protein; in data set [1] (Rat, 0.25 mg/mL, Experiment 1), 217 μL/min/mg intestinal S9 protein; in data set [1] (Rat, 0.25 mg/mL, Experiment 2) it was 318 μL/min/mg intestinal S9 protein; in data set [1] (Rat, 0.25 mg/mL, Experiment 3), 299 μL/min/mg intestinal S9 protein; in data set [1] (setting [18]), 278 μL/min/mg intestinal S9 protein. In addition, the “Clint (prodrug disappearance)” value is on record as 10.2 μL/min/mg intestinal S9 protein in data set [2] (Dog, Experiment 1); 14.4 μL/min/mg intestinal S9 protein in data set [2] (Dog, Experiment 2); 11.5 μL/min/mg intestinal S9 protein in data set [2] (Dog, Experiment 3); 12.0 μL/min/mg intestinal S9 protein in data set [2] (Dog, Mean of 3 experiments); 38.1 μL/min/mg intestinal S9 protein in data set [2] (Monkey, Experiment 1); 49.0 μL/min/mg intestinal S9 protein in data set [2] (Monkey, Experiment 2). The “Clint (prodrug disappearance)” value is on record as 40.7 μL/min/mg intestinal S9 protein in data set [2] (Monkey, Experiment 3) and 42.6 μL/min/mg intestinal S9 protein in data set [2] (Monkey, Mean of 3 experiments).
